According to patent publication US20010000177A1, “Novel class of thiomorpholino substituted thiazoles” (priority 1999, published 2001):
In brackets after ≈: the same amount, converted by molar mass.

Assays:
Assay type in all cases: cell-based
[1] = tested on: Candida and Cryptococcus strains (organism not given); assay: Broth microdilution antifungal activity, Table II fourth MIC/MCC column pair; conditions: for MIC = Minimum inhibitory concentration (50% Inhibition) / MCC = Minimum cytolytic concentration: fourth column pair of Table II; for MIC = Minimum inhibitory concentration (50% Inhibition): YNB broth pH 7.0; for MCC = Minimum cytolytic concentration: subculture on SDA plate
Experimental: (§1) Organisms: Three strains of Candida (Candida parpsilosis, Candida tropicalis, Candida albicans-ATCC 36082) as well as Cryptococcus neoformans were used for the initial testing. […] All clinical strains used in this study were blood culture isolates from the Clinical Microbiology Laboratory of Harbor-UCLA Medical Center, Torrance, Calif. The organisms were maintained on Sabourahd Dextrose Agar slants at 4° C. For experimentation, singlet suspensions of each organism were prepared by growing the yeast overnight at 27° C. on a rotating drum in yeast-nitrogen base broth (YNB) with amino acids (Difco, Detroit, Mich.), pH 7.0 with 0.05M morpholinepropanesulfonic acid (MOPS). The suspension was then centrifuged and washed twice with 0.85% NaCl. This was followed by sonication of the washed cell suspension for 4s (Branson Sonifier, model 350, Danbury, Conn.). The singlet blastospores were counted in a hemocytometer and adjusted to the desired concentration in 0.85% NaCl.
(§2) Antifungal Activity: The antifungal activity of the compounds and Fluconazole against the Candida and Cryptococcus strains were determined using a modification of a broth microdilution technique. Test compounds were diluted in DMSO to a 1.0 mg/ml ratio then diluted to 64 μg/ml in YNB broth, pH 7.0 with MOPS (Fluconazole was used as the control). This was to provide a working solution of each compound. Using a 96-well plate, wells 1 and 3 through 12 were prepared with YNB broth, […] dilutions of the compound solution were made in wells 2 through 11 (concentration ranges were 64 to 0.125 μg/ml). Well one served as a sterility control and blank for the spectrophotometric assays. Well twelve served as a growth control. The microtiter plates were inoculated with 10 ul in each of well 2 through 11 (final inoculum size was 10^4 organisms/ml). Inoculated plates were incubated for 48 hrs., at 35° C. The MIC values were determined spectrophotometrically by measuring the absorbance at 420 nm (Automatic Microplate Reader, DuPont Instruments, Wilmington, Del.) after agitation of the plates for 2 min with a vortex-mixer (Vorte-Genie 2 Mixer, Scientific Industries, Inc., Bolemia, N.Y.). […] With the turbidity assay this was defined as the lowest drug concentration at which turbidity in the well was <50% of the control (IC50) Minimal Cytolytic Concentrations (MCC) were determined by subculturing all wells from the 96-well plate onto a Sabourahd Dextrose Agar (SDA) plate and incubated for 1 to 2 days at 35° C. and the viability was checked.

[2] = tested on: Candida and Cryptococcus strains (organism not given); assay: Broth microdilution antifungal activity, Table II first MIC/MCC column pair; conditions: for MIC = Minimum inhibitory concentration (50% Inhibition) / MCC = Minimum cytolytic concentration: first column pair of Table II; for MIC = Minimum inhibitory concentration (50% Inhibition): YNB broth pH 7.0; for MCC = Minimum cytolytic concentration: subculture on SDA plate
Experimental: as §1, §2

[3] = tested on: Candida and Cryptococcus strains (organism not given); assay: Broth microdilution antifungal activity, Table II third MIC/MCC column pair; conditions: for MIC = Minimum inhibitory concentration (50% Inhibition): 48 hrs, 35° C., YNB broth pH 7.0; for MCC = Minimum cytolytic concentration: subculture on SDA plate
Experimental: (§3) Organisms: Three strains of Candida (Candida parpsilosis, Candida tropicalis, Candida albicans-ATCC 36082) as well as Cryptococcus neoformans were used for the initial testing. Active compounds were then tested against fluconazole resistant Candida albicans, Candida krusei, Torulopsis glabrata, and Cryptococcus neoformans along with Sporothrix shenkii and Aspergillus flavus in the secondary round of testing. All clinical strains used in this study were blood culture isolates from the Clinical Microbiology Laboratory of Harbor-UCLA Medical Center, Torrance, Calif. The organisms were maintained on Sabourahd Dextrose Agar slants at 4° C. For experimentation, singlet suspensions of each organism were prepared by growing the yeast overnight at 27° C. on a rotating drum in yeast-nitrogen base broth (YNB) with amino acids (Difco, Detroit, Mich.), pH 7.0 with 0.05M morpholinepropanesulfonic acid (MOPS). The suspension was then centrifuged and washed twice with 0.85% NaCl. This was followed by sonication of the washed cell suspension for 4s (Branson Sonifier, model 350, Danbury, Conn.). The singlet blastospores were counted in a hemocytometer and adjusted to the desired concentration in 0.85% NaCl.
as §2

[4] = tested on: Candida and Cryptococcus strains (organism not given); assay: Broth microdilution antifungal activity, Table II second MIC/MCC column pair; conditions: second column pair of Table II; for MIC = Minimum inhibitory concentration (50% Inhibition): 48 hrs, 35° C., YNB broth pH 7.0; for MCC = Minimum cytolytic concentration: subculture on SDA plate
Experimental: as §3, §2

Row | Compound | MIC = Minimum inhibitory concentration (50% Inhibition) ([1]; 48 hrs, 35° C.) | MIC = Minimum inhibitory concentration (50% Inhibition) ([2]; 48 hrs, 35° C.) | MIC = Minimum inhibitory concentration (50% Inhibition) [3] | MIC = Minimum inhibitory concentration (50% Inhibition) [4] | MIC ([1]; Candida, 48 h, pH 7, fourth column pair of Table II, 48 hrs, 35° C., YNB broth pH 7.0, read-out: MIC = Minimum inhibitory concentration (50% Inhibition)) | MIC ([2]; Candida, 48 h, pH 7, first column pair of Table II, 48 hrs, 35° C., YNB broth pH 7.0, read-out: MIC = Minimum inhibitory concentration (50% Inhibition)) | MCC = Minimum cytolytic concentration [1] | MCC = Minimum cytolytic concentration [2] | MCC = Minimum cytolytic concentration [3] | MCC = Minimum cytolytic concentration [4]
1 | C[C@@H]1[C@H](O)[C@@H](C)/C=C/C=C/C=C/C=C/C=C/C=C/C=C/[C@H](O[C@@H]2O[C@H](C)[C@@H](O)[C@H](N)[C@@H]2O)C[C@@H]2O[C@](O)(C[C@@H](O)C[C@@H](O)[C@H](O)CC[C@@H](O)C[C@@H](O)CC(=O)O[C@H]1C)C[C@H](O)[C@H]2C(=O)O [Amp-B, amphotericin B, reference compound] | <0.03 µg/mL | 0.25 µg/mL (≈ 0.271 µM) | – | 0.25 µg/mL (≈ 0.271 µM) | – | – | – | – | – | –
2 | CN(C)CCNCc1ccc(-c2csc(-c3ccc(Cl)cc3)n2)cc1 [Example 1jj, 2-(4′-chlorophenyl)-4-[4″-(N-(2-dimethylaminoethyl)aminomethyl)phenyl]thiazole] | 8 µg/mL (≈ 21.5 µM) | 8 µg/mL (≈ 21.5 µM) | 4 µg/mL (≈ 10.8 µM) | 4 µg/mL (≈ 10.8 µM) | – | – | 8 µg/mL | 8 µg/mL | 4 µg/mL | 4 µg/mL
3 | CN(CCO)Cc1ccc(-c2csc(-c3ccc(Cl)cc3)n2)cc1 [Example 1ee, 2-(4′-chlorophenyl)-4-[4″-(N-methyl-N-(2-hydroxyethyl)aminomethyl)-phenyl]thiazole] | 2 µg/mL (≈ 5.57 µM) | 4 µg/mL (≈ 11.1 µM) | 4 µg/mL (≈ 11.1 µM) | 2 µg/mL (≈ 5.57 µM) | – | – | 16 µg/mL | 16 µg/mL | 8 µg/mL | 16 µg/mL
4 | CN(C)Cc1ccc(-c2csc(-c3ccc([N+](=O)[O-])cc3)n2)cc1 [Example 1x, 2-(4′-nitrophenyl)-4-[4″-(dimethylaminomethyl)phenyl]thiazole] | 2 µg/mL (≈ 5.89 µM) | 1 µg/mL (≈ 2.95 µM) | 1 µg/mL (≈ 2.95 µM) | 1 µg/mL (≈ 2.95 µM) | – | – | 2 µg/mL | 2 µg/mL | 2 µg/mL | 2 µg/mL
5 | C=CCN(C)Cc1ccc(-c2csc(-c3ccc(Cl)cc3)n2)cc1 [Example 1g, 2-(4′-chlorophenyl)-4-[4″-(N-methyl-N-allylaminomethyl)phenyl]thiazole] | 2 µg/mL (≈ 5.64 µM) | 2 µg/mL (≈ 5.64 µM) | 2 µg/mL (≈ 5.64 µM) | 4 µg/mL (≈ 11.3 µM) | – | – | 8 µg/mL | 8 µg/mL | 8 µg/mL | 8 µg/mL
6 | CN(C)CCN(C)Cc1ccc(-c2csc(-c3ccc(Cl)cc3)n2)cc1 [Example 1u, 2-(4′-chlorophenyl)-4-[4″-(N-methyl-N-(2-dimethylaminoethyl)aminomethyl)-phenyl]thiazole] | 4 µg/mL (≈ 10.4 µM) | 8 µg/mL (≈ 20.7 µM) | 4 µg/mL (≈ 10.4 µM) | 4 µg/mL (≈ 10.4 µM) | – | – | 4 µg/mL | 8 µg/mL | 4 µg/mL | 4 µg/mL
7 | CN(C)CCSCc1ccc(-c2csc(-c3ccc(Cl)cc3)n2)cc1 [Example 1rr, 2-(4′-chlorophenyl)-4-[4″-[(2-dimethylaminoethyl-thio)methyl]phenyl]thiazole] | 4 µg/mL (≈ 10.3 µM) | 4 µg/mL (≈ 10.3 µM) | 4 µg/mL (≈ 10.3 µM) | 4 µg/mL (≈ 10.3 µM) | – | – | 8 µg/mL | 8 µg/mL | 8 µg/mL | 8 µg/mL
8 | C=CCNCc1ccc(-c2csc(-c3ccc(F)cc3)n2)cc1 [Example 1n, 2-(4′-fluorophenyl)-4-[4″-(N-allylaminomethyl)phenyl]thiazole] | 8 µg/mL (≈ 24.7 µM) | 8 µg/mL (≈ 24.7 µM) | 8 µg/mL (≈ 24.7 µM) | 4 µg/mL (≈ 12.3 µM) | – | – | 8 µg/mL | 16 µg/mL | 16 µg/mL | 8 µg/mL
9 | CN(C/C=C/c1ccccc1)Cc1cccc2ccccc12 [Naftifine, reference compound] | – | – | – | – | 4 µg/mL (≈ 13.9 µM) | 32 µg/mL (≈ 111 µM) | – | – | – | –

Further lines, with some results ahead:

Row | MIC = Minimum inhibitory concentration (50% Inhibition) ([1]; 48 hrs, 35° C.) | MIC = Minimum inhibitory concentration (50% Inhibition) ([2]; 48 hrs, 35° C.) | MIC = Minimum inhibitory concentration (50% Inhibition) [3] | MIC = Minimum inhibitory concentration (50% Inhibition) [4] | MIC ([1]; Candida, 48 h, pH 7, fourth column pair of Table II, 48 hrs, 35° C., YNB broth pH 7.0, read-out: MIC = Minimum inhibitory concentration (50% Inhibition)) | MIC ([2]; Candida, 48 h, pH 7, first column pair of Table II, 48 hrs, 35° C., YNB broth pH 7.0, read-out: MIC = Minimum inhibitory concentration (50% Inhibition)) | Compound | MCC = Minimum cytolytic concentration [1] | MCC = Minimum cytolytic concentration [2] | MCC = Minimum cytolytic concentration [3] | MCC = Minimum cytolytic concentration [4]
10 | 1 µg/mL (≈ 2.62 µM) | 1 µg/mL (≈ 2.62 µM) | 2 µg/mL (≈ 5.24 µM) | 1 µg/mL (≈ 2.62 µM) | – | – | CCCN(C)Cc1ccc(-c2csc(-c3ccc(C)c([N+](=O)[O-])c3)n2)cc1 [Example 6p, 2-(4′-methyl-3′-nitrophenyl)-4-[4″-(N-methyl-N-propylaminomethyl)-phenyl]thiazole] | 4 µg/mL | 8 µg/mL | 16 µg/mL | 4 µg/mL
11 | 4 µg/mL (≈ 9.79 µM) | 8 µg/mL (≈ 19.6 µM) | 2 µg/mL (≈ 4.9 µM) | 4 µg/mL (≈ 9.79 µM) | – | – | CCCN(C)Cc1ccc(-c2csc(-c3ccc(C(F)(F)F)cc3F)n2)cc1 [Example 6f, 2-(2′-fluoro-4′-trifluoromethylphenyl)-4-[4″-(N-methyl-N-propylamino-methyl)phenyl]thiazole] | 8 µg/mL | 16 µg/mL | 8 µg/mL | 8 µg/mL
12 | 0.5 µg/mL (≈ 1.44 µM) | 4 µg/mL (≈ 11.5 µM) | 2 µg/mL (≈ 5.76 µM) | 2 µg/mL (≈ 5.76 µM) | – | – | CCCN(C)Cc1ccc(-c2csc(-c3ccc(C#N)cc3)n2)cc1 [Example 6e, 2-(4′-cyanophenyl)-4-[4″-(N-methyl-N-propylaminomethyl)phenyl]-thiazole] | 1 µg/mL | 4 µg/mL | 16 µg/mL | 4 µg/mL
13 | 1 µg/mL (≈ 2.52 µM) | 1 µg/mL (≈ 2.52 µM) | 1 µg/mL (≈ 2.52 µM) | 0.5 µg/mL (≈ 1.26 µM) | – | – | CCCN(C)Cc1ccc(-c2csc(-c3ccc(OC)c([N+](=O)[O-])c3)n2)cc1 [Example 6k, 2-(4′-methoxy-3′-nitrophenyl)-4-[4″-(N-methyl-N-propylamino-methyl)phenyl]thiazole] | 1 µg/mL | 2 µg/mL | 2 µg/mL | 2 µg/mL
